The values below come from patent publication US20260130879A1 (IMMUNIC AG, priority 2023, published 2026).

Assay [1] concerns the target T1, hDHODH (Homo sapiens, UniProt Q02127).
T1 construct: measured using an N-terminally truncated recombinant hDHODH enzyme
The assay can be described thus: in vitro inhibition of hDHODH. The assay is classed as biochemical. On the procedure: The in vitro inhibition of hDHODH was measured using an N-terminally truncated recombinant hDHODH enzyme. Briefly, the hDHODH concentration was adjusted in a way that an average slope of approximately 0.2 AU/min served as the positive control (e.g., without inhibitor). The assay mixture contained 60 μM 2,6-dichloroindophenol, 50 μM decylubiquinone and 100 μM dihydroorotate. The hDHODH enzyme with or without at least six different concentrations of the compounds was added and measurements were performed in 50 mM TrisHCl, 150 mM KCl and 0.1% Triton X-100 at pH 8.0 and at 30° C. The reaction was started by adding dihydroorotate and measuring the absorption at 600 nm for 2 min. For the determination of the IC50 values, each data point was recorded in triplicate.

The target in assay [2] is human Nurr1 (Homo sapiens, UniProt P43354). The assay can be described thus: Hybrid Gal4-Nurr1 reporter gene assay in HEK293T cells. For orientation: In a reporter assay the amount or activity of a reporter protein is the signal.
Sequence of human Nurr1 (P43354 360-595 limits assumed): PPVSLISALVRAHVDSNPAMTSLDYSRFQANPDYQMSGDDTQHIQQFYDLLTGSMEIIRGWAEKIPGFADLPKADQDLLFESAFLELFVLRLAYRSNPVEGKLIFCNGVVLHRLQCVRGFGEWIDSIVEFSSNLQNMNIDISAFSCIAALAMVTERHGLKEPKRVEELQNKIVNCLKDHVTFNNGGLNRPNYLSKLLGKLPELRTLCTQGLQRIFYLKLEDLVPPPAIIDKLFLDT
Procedure: Nurr1 modulation was determined in a Gal4 hybrid reporter gene assays in HEK293T cells (German Collection of Microorganisms and Cell Culture GmbH, DSMZ) using pFR-Luc (Stratagene, La Jolla, CA, USA; reporter), pRL-SV40 (Promega, Madison, WI, USA: internal control) and pFA-CMV-hNurr1-LBD, coding for the hinge region and ligand binding domain of the canonical isoform of human Nurr1. Cells were cultured in Dulbecco's modified Eagle's medium (DMEM), high glucose supplemented with 10% fetal calf serum (FCS), sodium pyruvate (1 mM), penicillin (100 U/mL), and streptomycin (100 μg/mL) at 37° C., and 5% CO2 and seeded in 96-well plates (3×10+ cells/well). […] Firefly luminescence was divided by Renilla luminescence and multiplied by 1000 resulting in relative light units (RLU) to normalize for transfection efficiency and cell growth. Fold activation was obtained by dividing the mean RLU of test compound by the mean RLU of the untreated control. All samples were tested in at least three biologically independent experiments in duplicates. For dose-response curve fitting and calculation of EC50 values, the equation “[Agonist] versus response (three parameters)” was used in GraphPad Prism (version 7.00, GraphPad Software, La Jolla, CA, USA).
Similarly as described in Part A, the Nurr1 modulation was determined in a Gal4 hybrid reporter gene assay at a fixed concentration of 3 μM.

T1 sequence (Q02127 29-395): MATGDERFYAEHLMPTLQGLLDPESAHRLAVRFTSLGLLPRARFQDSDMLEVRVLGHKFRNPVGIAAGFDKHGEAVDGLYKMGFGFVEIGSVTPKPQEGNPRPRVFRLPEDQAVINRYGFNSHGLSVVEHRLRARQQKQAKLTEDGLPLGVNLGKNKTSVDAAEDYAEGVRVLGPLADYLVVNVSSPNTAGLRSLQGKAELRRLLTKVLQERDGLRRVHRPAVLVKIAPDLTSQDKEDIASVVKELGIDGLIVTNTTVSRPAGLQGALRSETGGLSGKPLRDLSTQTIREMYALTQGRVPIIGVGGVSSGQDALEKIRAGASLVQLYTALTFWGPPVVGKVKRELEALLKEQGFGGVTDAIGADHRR

As to `[2H]C(F)(F)Oc1cccc(-c2ccc(NC(=O)C3=C(C(=O)O)CCC3)c(F)c2)c1` [2/2], the IC50 (usually the midpoint of a concentration-inhibition curve) in assay [1] is 1000 to 10000 nM. Further, in assay [2], the EC50 (in general, the concentration at which the effect is half-maximal) lay in the range of 100 to 1000 nM and the “Nurr1 agonism max. fold activation (range)” value was “+++ (+++: ≥3-fold)”. Regarding `[2H]c1cc([2H])c(-c2ccc(NC(=O)C3=C(C(=O)O)CCC3)c(F)c2)c([2H])c1O` [2/4], in assay [2], the concentration for a half-maximal effect (EC50) was in the range of 100 to 1000 nM and the “Nurr1 agonism max. fold activation (range)” value was “+ (+: ≥1.3-fold to <2-fold)”. The corresponding values for `[2H]C([2H])([2H])Oc1cccc(-c2c(F)c(F)c(NC(=O)C3=C(C(=O)O)CCC3)c(F)c2F)c1` [2/10] are under 100 nM and “+ (+: ≥1.3-fold to <2-fold)”. The like results for `[2H]C([2H])([2H])Oc1cccc(-c2ccc(NC(=O)C3=C(C(=O)O)CCC3)c3cnccc23)c1` [2/13] were, in that order, 1000 to 10000 nM and “+++ (+++: ≥3-fold)”.

Turning to `[2H]C([2H])([2H])Oc1cccc(-c2cc(F)c(NC(=O)C3=C(C(=O)NOCC)CCC3)c(F)c2)c1` [2/18], in assay [2], the EC50 fell in the range of 1000 to 10000 nM and the “Nurr1 agonism max. fold activation (range)” value is recorded as “++ (++: ≥2-fold to <3-fold)”. Consider `[2H]C([2H])([2H])Oc1cccc(-c2cc(F)c(NC(=O)C3=C(/C(N)=N/O)CCC3)c(F)c2)c1` [2/20], for which, in assay [2], the EC50 lay within 100 to 1000 nM and the “Nurr1 agonism max. fold activation (range)” value was “++ (++: ≥2-fold to <3-fold)”.

On to `[2H]C([2H])([2H])Oc1cccc(-c2cc(F)c(NC(=O)C3=C(C(=O)NS(=O)(=O)C4(C)CC4)CCC3)c(F)c2)c1` [2/21], for which, in assay [2], the EC50 fell in the range of 1000 to 10000 nM and the “Nurr1 agonism max. fold activation (range)” value is given as “++ (++: ≥2-fold to <3-fold)”. The like results for `[2H]C([2H])([2H])Oc1cccc(-c2cc(F)c(NC(=O)C3=C(C(=O)NS(=O)(=O)C(F)F)CCC3)c(F)c2)c1` [2/22] were, in that order, 1000 to 10000 nM and “++ (++: ≥2-fold to <3-fold)”.

Regarding `[2H]C([2H])([2H])Oc1cccc(-c2cc(F)c(NC(=O)C3=C(C(=O)NOCCF)CCC3)c(F)c2)c1` [2/23], in assay [2], the EC50 lay in the range of 100 to 1000 nM and the “Nurr1 agonism max. fold activation (range)” value is on record as “+ (+: ≥1.3-fold to <2-fold)”. The like results for `[2H]C([2H])([2H])Oc1cccc(-c2cc(F)c(NC(=O)C3=C(C(=O)NOCCO)CCC3)c(F)c2)c1` [2/24] were, in that order, 1000 to 10000 nM and “+ (+: ≥1.3-fold to <2-fold)”.

In the case of `[2H]c1cc([2H])c(-c2c(F)c(F)c(NC(=O)c3ccsc3C(=O)O)c(F)c2F)c([2H])c1OC(F)(F)F` [2/25], in assay [2], the “Fold Activation @ 0.3 μM” value was “+++ (+++: ≥3-fold)” and the “Fold Activation @ 3 μM” value was “++ (++: ≥2-fold to <3-fold)”. With `[2H]C([2H])([2H])Oc1cccc(-c2cc(F)c(NC(=O)c3ccsc3C(=O)O)c(F)c2)c1` [2/26], the “Fold Activation @ 3 μM” value in assay [2] is “+ (+: ≥1.3-fold to <2-fold)”. On the same count and under the same terms, to `[2H]C([2H])([2H])Oc1ccccc1-c1c(F)c(F)c(NC(=O)C2=C(C(=O)O)CCC2)c(F)c1F` [2/27] belongs “+++ (+++: ≥3-fold)”; to `[2H]C([2H])([2H])Oc1cccc(-c2cc(F)c(NC(=O)C3=C(C(=O)NOC)CCC3)c(C#N)c2)c1` [2/29], “+ (+: ≥1.3-fold to <2-fold)”. In the case of `[2H]C([2H])([2H])Oc1cccc(-c2cc(F)c(NC(=O)C3=C(C(=O)O)CCC3)c(OC([2H])([2H])[2H])c2)c1` [2/31], in assay [2], the EC50 was in the range of 100 to 1000 nM and the “Nurr1 agonism max. fold activation (range)” value is given as “+ (+: ≥1.3-fold to <2-fold)”. The like results for `[N-]=[N+]=NCCOc1cccc(-c2ccc(NC(=O)C3=C(C(=O)O)CCC3)c(F)c2)c1` [4/1] were, in that order, under 100 nM and “+++ (+++: ≥3-fold)”.

In the case of `[2H]C([2H])([2H])Oc1cccc(-c2c(F)c(F)c(NC(=O)C3=C(C(=O)O)CC(F)(F)C3)c(F)c2F)c1` [6/1], in assay [2], the “Fold Activation @ 3 μM” value is “++ (++: ≥2-fold to <3-fold)”.

Consider `[2H]C([2H])([2H])Oc1cccc(-c2c(F)c(F)c(NC(=O)c3ccsc3C(=O)O)c(F)c2F)c1` [6/2], for which the “Fold Activation @ 3 μM” value in assay [2] is given as “++ (++: ≥2-fold to <3-fold)”. The same measure, in the same setting: with `[2H]C([2H])([2H])Oc1cccc(-c2c(F)c(F)c(NC(=O)c3cscc3C(=O)O)c(F)c2F)c1` [6/3] the entry was “++ (++: ≥2-fold to <3-fold)”.

Compound `[2H]C([2H])([2H])Oc1ccccc1-c1c(F)c(F)c(NC(=O)c2cscc2C(=O)O)c(F)c1F` [6/5] had an IC50 in assay [1] of under 10 nM. In assay [2], the EC50 is under 100 nM and the “Nurr1 agonism max. fold activation (range)” value is on record as “+ (+: ≥1.3-fold to <2-fold)”.

As to `[2H]C([2H])([2H])Oc1ccccc1-c1c(F)c(F)c(NC(=O)C2=C(C(=O)O)CSC2)c(F)c1F` [6/7], the “Fold Activation @ 3 μM” value in assay [2] is “++ (++: ≥2-fold to <3-fold)”. Same read-out and setting: to `[2H]C([2H])([2H])Oc1cccc(-c2c(F)cc(NC(=O)c3ccsc3C(=O)O)cc2F)c1` [6/8] belongs “+++ (+++: ≥3-fold)”. On the same count and under the same terms, to `COc1cccc(-c2ccc(NC(=O)C3=C(C(=O)NO)CCC3)c(F)c2)c1` [6/10] belongs “++ (++: ≥2-fold to <3-fold)”. `[2H]C([2H])([2H])Oc1cccc(-c2c(F)c(F)c(NC(=O)c3c(C(=O)O)sc(C)c3C)c(F)c2F)c1` [6/13] registered an IC50 in assay [1] of under 100 nM. Also, in assay [2], the EC50 is under 100 nM and the “Nurr1 agonism max. fold activation (range)” value is reported as “++ (++: ≥2-fold to <3-fold)”. `[2H]C([2H])([2H])Oc1cccc(-c2c(F)c(F)c(NC(=O)c3ccsc3C(N)=O)c(F)c2F)c1` [6/14]: in assay [1], the IC50 is 1000 to 10000 nM. For the same compound, in assay [2], the EC50 was 100 to 1000 nM and the “Nurr1 agonism max. fold activation (range)” value is on record as “+ (+: ≥1.3-fold to <2-fold)”. The corresponding values for `[2H]C([2H])([2H])Oc1cccc(-c2c(F)c(F)c(NC(=O)c3ccsc3C(=O)NCC)c(F)c2F)c1` [6/15] are over 10000 nM, 100 to 1000 nM and “+ (+: ≥1.3-fold to <2-fold)”. On to `C#CCOc1cccc(-c2c(F)c(F)c(NC(=O)c3ccsc3C(=O)O)c(F)c2F)c1` [6/17], for which the “Fold Activation @ 3 μM” value in assay [2] is reported as “+++ (+++: ≥3-fold)”. Still for that read-out and setting: with `C#CCOc1cccc(-c2c(F)c(F)c(NC(=O)c3ccsc3C(=O)NC)c(F)c2F)c1` [6/18] the entry was “+ (+: ≥1.3-fold to <2-fold)”.

`[2H]C([2H])([2H])Oc1cccc(-c2c(F)c(F)c(NC(=O)c3ccccc3C(=O)O)c(F)c2F)c1` [6/20] registered an IC50 in assay [1] of under 100 nM. Also, in assay [2], the EC50 is under 100 nM. As for `[2H]C([2H])([2H])Oc1cccc(-c2c(F)c(F)c(NC(=O)C3=C(C(=O)N(C)C)CC(F)(F)C3)c(F)c2F)c1` [6/27], the IC50 in assay [1] was 1000 to 10000 nM. Besides, in assay [2], the EC50 is 1000 to 10000 nM and the “Nurr1 agonism max. fold activation (range)” value is recorded as “+ (+: ≥1.3-fold to <2-fold)”. For `[2H]C([2H])([2H])Oc1cccc(-c2c(F)c(F)c(NC(=O)c3ccsc3C(=O)NCC#N)c(F)c2F)c1` [6/39], in assay [1], the IC50 fell in the range of 100 to 1000 nM. In assay [2], the EC50 lay within 1000 to 10000 nM and the “Nurr1 agonism max. fold activation (range)” value is reported as “++ (++: ≥2-fold to <3-fold)”.

In assay [1], `[2H]C([2H])([2H])Oc1cccc(-c2c(F)c(F)c(NC(=O)c3ccsc3C(=O)NCCO)c(F)c2F)c1` [6/40] came in with an IC50 of over 10000 nM. Also, in assay [2], the EC50 fell in the range of 1000 to 10000 nM and the “Nurr1 agonism max. fold activation (range)” value is reported as “+ (+: ≥1.3-fold to <2-fold)”. Turning to `[2H]C([2H])([2H])Oc1cccc(-c2c(F)c(F)c(NC(=O)c3ccsc3C(=O)NCC(F)F)c(F)c2F)c1` [6/41], the “Fold Activation @ 0.3 μM” value in assay [2] is “+ (+: ≥1.3-fold to <2-fold)”. As to `[2H]C([2H])([2H])Oc1cccc(-c2c(F)c(F)c(NC(=O)c3ccsc3C(=O)NCC(F)(F)F)c(F)c2F)c1` [6/44], the “Fold Activation @ 3 μM” value in assay [2] is reported as “+ (+: ≥1.3-fold to <2-fold)”. `[2H]c1c([2H])c([2H])c(-c2c(F)c(F)c(NC(=O)c3ccsc3C(N)=O)c(F)c2F)c([2H])c1[2H]` [6/45] registered an IC50 in assay [1] of 1000 to 10000 nM. Also, the EC50 in assay [2] is 100 to 1000 nM.

Take `[2H]c1c([2H])c([2H])c(-c2c(F)c(F)c(NC(=O)C3=C(C(N)=O)CC(F)(F)C3)c(F)c2F)c([2H])c1[2H]` [6/46]: the IC50 in assay [1] is 1000 to 10000 nM. In addition, the EC50 in assay [2] is 100 to 1000 nM. Take `[2H]C([2H])([2H])Oc1cccc(-c2ccc(NC(=O)c3cscc3C(=O)O)cc2)c1` [6/50]: the IC50 in assay [1] is 100 to 1000 nM. Moreover, in assay [2], the EC50 is under 100 nM and the “Nurr1 agonism max. fold activation (range)” value is listed as “++ (++: ≥2-fold to <3-fold)”.

The compound `C#CCOc1cccc(-c2ccc(NC(=O)c3cscc3C(=O)O)cc2)c1` [6/51] gave an IC50 in assay [1] of 1000 to 10000 nM. Besides, in assay [2], the EC50 lay in the range of 100 to 1000 nM and the “Nurr1 agonism max. fold activation (range)” value is “+++ (+++: ≥3-fold)”. As to `C#CCOc1cccc(-c2ccc(NC(=O)c3cscc3C(=O)O)c(F)c2)c1` [6/52], in assay [1], the IC50 lay within 100 to 1000 nM. Moreover, in assay [2], the EC50 is under 100 nM and the “Nurr1 agonism max. fold activation (range)” value is on record as “++ (++: ≥2-fold to <3-fold)”. The corresponding values for `[2H]C([2H])([2H])Oc1cccc(-c2ccc(NC(=O)c3cscc3C(N)=O)cc2)c1` [6/53] are over 10000 nM, 100 to 1000 nM and “+ (+: ≥1.3-fold to <2-fold)”. The like results for `C#CCOc1cccc(-c2ccc(NC(=O)c3cscc3C(N)=O)cc2)c1` [6/54] were, in that order, over 10000 nM, 1000 to 10000 nM and “+ (+: ≥1.3-fold to <2-fold)”. The like results for `[2H]C([2H])([2H])Oc1cccc(-c2ccc(NC(=O)c3cscc3C(=O)NCC)cc2)c1` [6/56] were, in that order, over 10000 nM, 1000 to 10000 nM and “+++ (+++: ≥3-fold)”. As for `O=C(O)C1=C(C(=O)Nc2c(F)cc(-c3cccc4c3OCO4)cc2F)CCC1` [reference compound], the EC50 in assay [2] was over 10000 nM. Still for that read-out and setting: to `[2H]C([2H])([2H])Oc1cccc(-c2ccc(N(C)C(=O)C3=C(C(=O)O)CCC3)c(F)c2)c1` [reference compound] belongs over 10000 nM.
